US6740666B2, “Substituted 8-arylquinoline phosphodiesterase-4 inhibitors” (Merck & Co., Inc., priority 2000, dated 2004)

Test: Formation of metabolite in vivo after administration
Details: Example 19 (a PDE4 inhibitor) formed when Example 14 is administered to a mammal
Description: For example, Example 19, (5-{(E)-2-(3-{6-[1-methyl-1-(methylsulfonyl)ethyl]-8-quinolinyl}phenyl)-1-[4-(methylsulfonyl)phenyl]ethenyl}-1,2,4-oxadiazol-3-yl)methanol: [drawing 2]
is administered. Accordingly, the present invention includes prodrugs that form PDE4 inhibitors in vivo as a metabolite after administering such prodrugs to a mammal. Further, this invention includes a method of treatment by a step of administering a prodrug to form in vivo an effective amount of a PDE4 inhibitor described by Formula I.

Cc1noc(/C(=C/c2cccc(-c3cc(C(C)(C)S(C)(=O)=O)cc4cccnc34)c2)c2ccc(S(C)(=O)=O)cc2)n1 [Example 14, 6-[1-methyl-1-(methylsulfonyl)ethyl]-8-[3-[(E)-2-[3-methyl-1,2,4-oxadiazol-5-yl]-2-[4-(methylsulfonyl)phenyl]ethenyl]phenyl]quinoline]
metabolite formed in vivo: formed in vivo as a metabolite
